Results reported in patent US9884047B1, “Method of treating lung cancer” (Macau University of Science and Technology, priority 2017, dated 2018).

Key:
Type in all cases: cell-based
[1] = tested on: H2122 NSCLC cells; test: Apoptosis analysis (Annexin V/PI flow cytometry); conditions: H2122 cells, 0, 5, 10, 20 and 40 μM for 24 h
Protocol: (§1) H2122, A549 and H358 NSCLC cells were plated in a 6-well plate with 2.0×10^5 cells/well and cultured overnight for attachment. After treatment with compound K017-0105 at 0, 5, 10, 20, 40 μM for 24 h, all cells were harvested by trypsinization and centrifuged at room temperature at 1000 rotations per minute (RPM) for 5 minutes. Cells were re-suspended in 100 μL 1× binding buffer and stained with Annexin V and propidium iodide (PI) staining solution for 15 minutes at room temperature in the dark. Apoptotic cells were quantitatively counted by a BD FACSAria III Flow Cytometer.
(§2) The ability of compound K017-0105 in inducing apoptosis in H2122, H358 and A549 NSCLC cells was examined. H2122, H358 and A549 NSCLC cells were treated with compound K017-0105 at different concentrations (0, 5, 10, 20 and 40 μM) for 24 h. These cells were stained with Annexin V-FITC/PI, and […] was detected by flow cytometry.

[2] = tested on: H358 NSCLC cells; test: Apoptosis analysis (Annexin V/PI flow cytometry); conditions: H358 cells, 0, 5, 10, 20 and 40 μM for 24 h
Protocol: as §1, §2

[3] = tested on: A549 NSCLC cells; test: Apoptosis analysis (Annexin V/PI flow cytometry); conditions: A549 cells, 0, 5, 10, 20 and 40 μM for 24 h
Protocol: as §1, §2

[4] = tested on: GTP-bound KRAS; test: RAS-binding domain pull down assay; conditions: 400 of compound, 24 hour treatment
Protocol: KRAS activation was determined using the rat sarcoma (RAS) activation assay kit (Millipore, 17-218) in accordance with the manufacturer's guidelines. Cell lysates were prepared using Mg2^+ Lysis/wash buffer (MLB). Samples were incubated with 10 μg RAS assay reagent and incubated for 45 minutes at 4° C. Agarose beads were pelleted by centrifugation and washed 3 times with MLB. Agarose beads were re-suspended in loading buffer. Samples were subjected to western blotting, as previously described, and the blots were probed using anti-K-Ras antibody (sc-30, Santa Cruz Biotechnology (SANTA)).

[5] = tested on: normal CCD-19Lu lung cells; test: MTT cytotoxicity assay; conditions: 72 h
Protocol: (§3) Cells were seeded in a 96-well microplate with 3000, 4000 or 5000 cells/well confluence and cultured overnight for cell adhesion. Different concentrations of compound K017-0105 were added to the microplates, and the microplates were incubated for 24, 48 or 72 hours (h). Each concentration of compound K017-0105 was repeated in triplicate. 10 μL 3-(4,5-Dimethylthiazol-2-yl)-2,5-Diphenyltetrazolium Bromide (MTT) (5 mg/mL) solution was added to every well. After incubating for 4 h, 100 μL dimethyl sulfoxide (DMSO) was added to each well. After shaking for 15 minutes, the absorbance of the microplate was measured at 570 nm (absorbance) and 650 nm (reference) by a microplate reader (Tecan, Morrisville, N.C., USA).

[6] = tested on: H2122 NSCLC cells; test: MTT cytotoxicity assay
Protocol: (§4) H2122, A549 and H358 non-small cell lung cancer (NSCLC) cells were purchased from ATCC and cultivated with Roswell Park Memorial Institute (RPMI) 1640 medium supplemented with 10% fetal bovine serum (Gibco, Big Cabin, Oklahoma, ME, USA), 100 units/mL penicillin and 100 μg/mL streptomycin (Gibco, Big Cabin, Oklahoma, ME, USA). All the cells were cultivated at 37° C. in a humidified atmosphere of 5% CO2.
as §3

[7] = tested on: H358 NSCLC cells; test: MTT cytotoxicity assay
Protocol: as §4, §3

[8] = tested on: A549 NSCLC cells; test: MTT cytotoxicity assay
Protocol: as §4, §3

[9] = tested on: p-CRAF, p-Akt and p-ERK; test: Western blot analysis of KRAS downstream signaling; conditions: compared with untreated control cells
Protocol: H2122, H358 and A549 NSCLC cells were rinsed with phosphate-buffered saline (PBS) and lysed in radioimmunoprecipitation assay (RIPA) lysis buffer (Beyotime, China) supplemented with a protease and phosphatase inhibitor cocktail (Thermo Scientific 78440, USA) once for 30 minutes. Cell lysates were centrifuged at 12,000 g for 10 minutes at 4° C. The supernatant was collected, and the protein concentration was calculated with a Bio-Rad detergent compatible (DC™) protein assay kit (Bio-Rad, Philadelphia, Pa., USA). 30 μg protein lysates were loaded and separated by 10% sodium dodecyl sulfate (SDS)-polyacrylamide gel electrophoresis and transferred to a nitrocellulose (NC) membrane. The membranes were incubated with the primary antibody (1:2000) and then with a fluorescence-conjugated secondary antibody (1:10000). Glyceraldehyde 3-phosphate dehydrogenase (GAPDH) was used as the loading control for normalization. The signal of the membranes was scanned with a LI-COR Odyssey Scanner (Belfast, Me., USA).

In the case of O=C1Nc2ccccc2/C1=N\Nc1ccc(F)c(Cl)c1 [compound K017-0105], the apoptosis [1] is reported as “significantly induced apoptosis”, the apoptosis [2] is reported as “significantly induced apoptosis” and the apoptosis [3] is reported as “significantly induced apoptosis”. The “level of GTP-bound KRAS” value ([4]; A549 NSCLC cells) was “inhibited”, the “level of GTP-bound KRAS” value ([4]; H358 NSCLC cells) was “inhibited” and the “level of GTP-bound KRAS” value ([4]; H2122 NSCLC cells) was “inhibited”. The cytotoxicity [5] was “no cytotoxicity”, the IC50 ([6]; Homo sapiens, NCI-H2122, 72 h treatment, mean±SEM) was 7.19 ± 1.6 µM and the cytotoxicity ([6]; MTT, 72 h) was “significant cytotoxicity”. For the same molecule, the IC50 ([7]; Homo sapiens, NCI-H358, 72 h treatment, mean±SEM) was 8.18 ± 1.29 µM, the cytotoxicity ([7]; MTT, 72 h) was “significant cytotoxicity” and the IC50 ([8]; Homo sapiens, 72 h treatment, mean±SEM) was 8.28 ± 2.64 µM. For the same molecule, the cytotoxicity ([8]; MTT, 72 h) was “significant cytotoxicity”, the “levels of p-CRAF, p-Akt and p-ERK” value ([9]; A549 NSCLC cells) was “decreased” and the “levels of p-CRAF, p-Akt and p-ERK” value ([9]; H358 NSCLC cells) was “decreased”. The “levels of p-CRAF, p-Akt and p-ERK” value ([9]; H2122 NSCLC cells) was “decreased”.
